Laboratory results as given in ChEMBL document CHEMBL4038342, “Hydrophilic, Potent, and Selective 7-Substituted 2-Aminoquinolines as Improved Human Neuronal Nitric Oxide Synthase Inhibitors” (J Med Chem, 2017).

Key:
[1] = biological target: Nitric oxide synthase 1 (Rattus norvegicus, UniProt P29476)
[2] = biological target: Nitric oxide synthase 1 (Homo sapiens, UniProt P29475)
[3] = biological target: T1, Nitric oxide synthase 3 (Bos taurus, UniProt P29473); assay: Inhibition of recombinant bovine eNOS expressed in Escherichia coli using L-arginine as substrate after 30 secs by hemoglobin capture assay
T1 sequence (P29473 whole entry): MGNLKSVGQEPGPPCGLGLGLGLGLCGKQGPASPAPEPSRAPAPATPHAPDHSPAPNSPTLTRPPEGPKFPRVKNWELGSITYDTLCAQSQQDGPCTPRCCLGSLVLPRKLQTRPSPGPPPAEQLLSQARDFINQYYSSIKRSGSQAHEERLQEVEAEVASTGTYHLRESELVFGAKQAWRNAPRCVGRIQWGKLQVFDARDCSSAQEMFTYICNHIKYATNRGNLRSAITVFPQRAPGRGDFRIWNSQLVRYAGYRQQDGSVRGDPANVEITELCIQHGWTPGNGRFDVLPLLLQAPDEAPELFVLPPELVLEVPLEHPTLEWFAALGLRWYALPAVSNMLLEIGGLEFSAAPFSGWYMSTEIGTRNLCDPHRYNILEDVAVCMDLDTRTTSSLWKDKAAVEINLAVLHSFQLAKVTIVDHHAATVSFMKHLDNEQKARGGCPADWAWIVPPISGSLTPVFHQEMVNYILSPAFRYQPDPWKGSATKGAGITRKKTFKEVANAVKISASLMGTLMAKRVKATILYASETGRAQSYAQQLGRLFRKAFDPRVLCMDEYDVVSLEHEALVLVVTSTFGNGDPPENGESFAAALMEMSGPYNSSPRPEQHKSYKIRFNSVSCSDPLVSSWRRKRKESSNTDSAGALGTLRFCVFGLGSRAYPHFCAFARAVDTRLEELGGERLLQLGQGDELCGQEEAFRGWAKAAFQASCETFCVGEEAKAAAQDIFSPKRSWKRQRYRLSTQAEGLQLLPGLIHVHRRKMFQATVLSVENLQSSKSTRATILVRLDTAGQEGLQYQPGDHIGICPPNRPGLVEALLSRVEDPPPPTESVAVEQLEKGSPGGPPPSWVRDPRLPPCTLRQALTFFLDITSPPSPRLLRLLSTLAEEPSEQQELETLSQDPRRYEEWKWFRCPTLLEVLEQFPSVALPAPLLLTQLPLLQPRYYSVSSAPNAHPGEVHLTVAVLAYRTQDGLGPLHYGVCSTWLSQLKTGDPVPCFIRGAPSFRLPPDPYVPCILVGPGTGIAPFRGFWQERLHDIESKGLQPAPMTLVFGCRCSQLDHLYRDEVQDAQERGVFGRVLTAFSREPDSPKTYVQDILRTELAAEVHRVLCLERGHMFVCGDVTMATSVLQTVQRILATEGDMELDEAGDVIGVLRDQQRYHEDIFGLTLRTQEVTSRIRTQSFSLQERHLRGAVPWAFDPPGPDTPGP

[4] = biological target: T2, Nitric oxide synthase, inducible (Mus musculus, UniProt P29477); assay: Inhibition of recombinant mouse macrophage iNOS expressed in Escherichia coli using L-arginine as substrate after 30 secs by hemoglobin capture assay
T2 sequence (P29477 whole entry): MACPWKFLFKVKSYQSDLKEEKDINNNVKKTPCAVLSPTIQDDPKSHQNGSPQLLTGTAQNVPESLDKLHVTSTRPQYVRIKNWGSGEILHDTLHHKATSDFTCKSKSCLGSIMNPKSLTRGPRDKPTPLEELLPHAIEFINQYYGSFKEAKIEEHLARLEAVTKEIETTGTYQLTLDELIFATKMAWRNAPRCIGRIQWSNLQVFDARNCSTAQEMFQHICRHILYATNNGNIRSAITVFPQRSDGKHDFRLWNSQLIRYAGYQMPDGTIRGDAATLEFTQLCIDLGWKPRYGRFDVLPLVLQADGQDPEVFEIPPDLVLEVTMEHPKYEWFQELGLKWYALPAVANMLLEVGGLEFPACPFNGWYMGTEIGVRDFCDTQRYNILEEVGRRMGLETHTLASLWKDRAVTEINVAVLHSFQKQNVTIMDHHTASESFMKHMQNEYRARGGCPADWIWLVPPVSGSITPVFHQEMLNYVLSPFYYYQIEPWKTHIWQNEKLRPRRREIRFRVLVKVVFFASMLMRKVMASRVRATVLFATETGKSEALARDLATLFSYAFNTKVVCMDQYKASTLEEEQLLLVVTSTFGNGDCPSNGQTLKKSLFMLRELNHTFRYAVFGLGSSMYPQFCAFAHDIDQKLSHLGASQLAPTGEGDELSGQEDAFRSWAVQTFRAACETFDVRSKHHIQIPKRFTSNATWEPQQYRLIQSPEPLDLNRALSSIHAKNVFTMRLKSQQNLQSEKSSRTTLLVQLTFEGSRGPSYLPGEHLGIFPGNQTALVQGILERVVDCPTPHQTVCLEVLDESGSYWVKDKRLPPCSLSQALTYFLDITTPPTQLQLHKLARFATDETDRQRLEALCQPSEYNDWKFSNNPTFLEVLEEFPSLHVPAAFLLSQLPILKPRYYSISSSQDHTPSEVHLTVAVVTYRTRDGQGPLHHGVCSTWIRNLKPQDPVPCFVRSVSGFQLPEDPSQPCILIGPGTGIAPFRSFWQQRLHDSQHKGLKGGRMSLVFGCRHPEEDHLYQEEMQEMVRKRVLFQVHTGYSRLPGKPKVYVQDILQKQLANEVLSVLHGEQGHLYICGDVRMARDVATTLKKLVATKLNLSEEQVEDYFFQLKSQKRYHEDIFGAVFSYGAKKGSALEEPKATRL

[5] = Permeability from basolateral to apical side in human Caco2 cells assessed as drug recovery at 10 uM after 2 hrs by LC/MS/MS analysis; format: ADME, cell-based; settings: caco-2, 2 h
[6] = Permeability from apical to basolateral side in human Caco2 cells assessed as drug recovery at 10 uM after 2 hrs by LC/MS/MS analysis; format: ADME, cell-based; settings: caco-2, 2 h

Chain of Nitric oxide synthase 1 (Rattus norvegicus, UniProt P29476) (P29476 whole entry): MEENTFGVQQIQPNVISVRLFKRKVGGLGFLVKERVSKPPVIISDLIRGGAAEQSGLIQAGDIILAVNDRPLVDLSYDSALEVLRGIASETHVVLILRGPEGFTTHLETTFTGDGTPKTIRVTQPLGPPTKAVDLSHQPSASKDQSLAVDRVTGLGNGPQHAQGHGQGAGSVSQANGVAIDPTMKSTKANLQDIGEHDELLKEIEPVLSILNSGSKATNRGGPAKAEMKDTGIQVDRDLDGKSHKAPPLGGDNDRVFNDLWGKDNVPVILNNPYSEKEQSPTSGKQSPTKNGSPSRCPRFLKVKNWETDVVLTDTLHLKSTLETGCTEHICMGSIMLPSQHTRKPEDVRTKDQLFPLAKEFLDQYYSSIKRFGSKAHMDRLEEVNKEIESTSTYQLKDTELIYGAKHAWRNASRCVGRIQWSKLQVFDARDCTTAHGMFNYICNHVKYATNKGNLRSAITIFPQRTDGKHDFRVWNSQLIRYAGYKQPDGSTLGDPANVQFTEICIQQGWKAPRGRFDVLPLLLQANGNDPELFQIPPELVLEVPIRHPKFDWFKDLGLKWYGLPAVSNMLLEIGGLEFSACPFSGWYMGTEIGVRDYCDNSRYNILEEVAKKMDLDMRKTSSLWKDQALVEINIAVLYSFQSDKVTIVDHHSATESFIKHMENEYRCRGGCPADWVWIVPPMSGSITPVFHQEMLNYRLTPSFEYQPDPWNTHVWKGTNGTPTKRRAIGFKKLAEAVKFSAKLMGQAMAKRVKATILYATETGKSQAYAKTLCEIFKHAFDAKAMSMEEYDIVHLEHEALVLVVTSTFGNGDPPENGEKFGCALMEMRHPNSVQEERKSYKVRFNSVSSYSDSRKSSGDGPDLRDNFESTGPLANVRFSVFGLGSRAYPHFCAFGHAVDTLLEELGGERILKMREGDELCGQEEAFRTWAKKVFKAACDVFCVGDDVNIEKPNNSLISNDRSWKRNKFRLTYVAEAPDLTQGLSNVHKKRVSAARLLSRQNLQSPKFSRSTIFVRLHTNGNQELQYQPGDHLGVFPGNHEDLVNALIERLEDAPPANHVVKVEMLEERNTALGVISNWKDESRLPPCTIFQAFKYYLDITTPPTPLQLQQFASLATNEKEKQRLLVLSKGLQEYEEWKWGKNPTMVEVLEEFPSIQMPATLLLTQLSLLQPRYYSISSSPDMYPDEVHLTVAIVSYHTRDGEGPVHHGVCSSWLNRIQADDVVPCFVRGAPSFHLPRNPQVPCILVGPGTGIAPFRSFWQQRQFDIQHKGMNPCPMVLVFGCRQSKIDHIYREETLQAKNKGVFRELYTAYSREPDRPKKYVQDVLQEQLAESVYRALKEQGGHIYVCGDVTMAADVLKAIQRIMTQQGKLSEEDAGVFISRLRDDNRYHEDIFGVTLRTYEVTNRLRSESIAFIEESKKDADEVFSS
Chain of Nitric oxide synthase 1 (Homo sapiens, UniProt P29475) (P29475 whole entry): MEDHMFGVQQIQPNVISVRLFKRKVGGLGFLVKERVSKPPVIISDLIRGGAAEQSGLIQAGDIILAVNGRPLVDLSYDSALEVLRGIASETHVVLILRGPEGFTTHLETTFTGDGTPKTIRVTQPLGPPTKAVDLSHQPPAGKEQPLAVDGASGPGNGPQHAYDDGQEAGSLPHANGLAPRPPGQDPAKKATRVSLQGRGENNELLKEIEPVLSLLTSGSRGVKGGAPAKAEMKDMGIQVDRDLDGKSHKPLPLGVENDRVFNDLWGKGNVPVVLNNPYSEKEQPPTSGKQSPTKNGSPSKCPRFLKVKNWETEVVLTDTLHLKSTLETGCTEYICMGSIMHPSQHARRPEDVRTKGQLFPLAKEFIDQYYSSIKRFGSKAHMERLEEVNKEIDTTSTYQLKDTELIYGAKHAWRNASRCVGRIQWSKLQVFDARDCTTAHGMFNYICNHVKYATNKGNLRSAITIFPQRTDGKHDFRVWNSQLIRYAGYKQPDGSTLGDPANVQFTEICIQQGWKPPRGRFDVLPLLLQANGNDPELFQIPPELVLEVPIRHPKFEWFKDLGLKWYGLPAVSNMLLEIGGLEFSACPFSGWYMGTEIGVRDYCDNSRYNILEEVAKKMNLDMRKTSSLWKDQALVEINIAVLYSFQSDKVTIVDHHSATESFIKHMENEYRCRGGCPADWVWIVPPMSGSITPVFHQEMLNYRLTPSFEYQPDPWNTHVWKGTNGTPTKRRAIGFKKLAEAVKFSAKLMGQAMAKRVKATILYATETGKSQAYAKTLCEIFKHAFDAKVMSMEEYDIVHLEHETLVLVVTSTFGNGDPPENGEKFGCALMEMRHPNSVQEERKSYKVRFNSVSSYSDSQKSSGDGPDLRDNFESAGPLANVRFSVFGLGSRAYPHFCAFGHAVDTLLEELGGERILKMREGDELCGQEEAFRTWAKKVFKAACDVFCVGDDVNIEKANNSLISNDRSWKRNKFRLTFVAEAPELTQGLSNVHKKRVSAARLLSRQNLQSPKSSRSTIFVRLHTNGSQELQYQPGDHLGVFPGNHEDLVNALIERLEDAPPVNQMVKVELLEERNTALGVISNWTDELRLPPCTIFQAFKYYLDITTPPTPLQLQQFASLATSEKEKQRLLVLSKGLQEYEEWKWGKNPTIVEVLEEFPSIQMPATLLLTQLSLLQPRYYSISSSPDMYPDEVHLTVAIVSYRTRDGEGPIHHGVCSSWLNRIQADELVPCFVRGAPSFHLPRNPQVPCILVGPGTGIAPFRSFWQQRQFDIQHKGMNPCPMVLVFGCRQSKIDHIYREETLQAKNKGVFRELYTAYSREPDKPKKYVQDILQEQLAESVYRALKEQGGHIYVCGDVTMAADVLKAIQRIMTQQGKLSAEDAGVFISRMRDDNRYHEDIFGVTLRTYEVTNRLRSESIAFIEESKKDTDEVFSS

Drug recovery [5] [%] | Drug recovery [6] [%] | Compound | Ki [1] [nM] | Ki [2] [nM] | Ki [3] [nM] | Ki [4] [nM]
 |  | Nc1ccc2ccc(CNCCCc3cccnc3)cc2n1 | 38 | 108 | 1040 | 
 |  | CN(C)c1ccc(CNCc2ccc3ccc(N)nc3c2)cc1 | 522 |  | 8420 | 42200
 |  | Cc1ccncc1CCCNCc1ccc2ccc(N)nc2c1 |  | 130 | 562 | 13800
 |  | COc1ccncc1CCCNCc1ccc2ccc(N)nc2c1 |  |  |  | 17200
 |  | CN(C)c1cccc(CNCc2ccc3ccc(N)nc3c2)c1 | 421 | 1020 | 6530 | 30100
83 | 58.5 | Cc1cc(CCNCc2ccc3c(C)cc(N)nc3c2)ccc1C#N |  |  |  | 
